Experiment [1] concerns H1N1 A/Puerto Rico/8/34 (PR8) influenza A virus. Further details: species or system B6 mice. To be noted: mouse, in vivo.
Experiment [2] has as its system influenza virus in madin-darby canine kidney (MDCK) cells. The experiment can be described thus: Virus replication in MDCK cells. To be noted: up to 1 μg/ml, compared to PBS.

Each structure is given as a SMILES string.

In the case of `CCc1ccc(CCOc2ccc(CC3SC(=O)NC3=O)cc2)nc1` (centres unmarked) [pioglitazone], the mortality – broadly, the percentage killed – in experiment [1] came to 50%. Further, in experiment [2], the “inhibition of virus replication in MDCK cells” value is reported as “did not inhibit”.

(Values after patent publication US20120022113A1, “METHODS FOR S[…] T[…] ACCUMULATION AND PREVENTING HYPERCYTOKINEMIA” (priority 2009, published 2012).)
